Key:
[1] = target: T1, hα7-wt nAChR (Homo sapiens, UniProt P36544); test: Ca2+ flux imaging (FDSS): potentiation of the choline response; type: cell-based; conditions: Ca2+ assay as described in D.1; potentiation of choline response, hα7-wt nAChR; read-out: Potency (pEC50) (converted)
Procedure: • a) Assay Buffer • Hanks buffered saline solution (HBSS, Invitrogen, Belgium), supplemented with 10 mM HEPES (Invitrogen, Belgium), CaCl2 to a final concentration of 5 mM, 0.1% Bovine serum albumin (Sigma-Aldrich NV, Belgium). • b) Calcium-Sensitive Dye—Fluo-4AM • Fluo-4AM (Molecular Probes, USA) was dissolved in DMSO containing 10% Pluronic acid (Molecular Probes, USA) to give a stock solution which was diluted in assay buffer supplemented with 5 mM probenicid (Sigma, Aldrich NV, Belgium) to give a final concentration of 2 μM. • c) 384-Well Plates • Black 384 well plate black/clear plates, PDL pre-coated (Corning, Incorporated, USA) • d) Calcium Flux Measurement • A Functional drug screening system (FDSS, Hamamatsu) was used to measure intracellular free-calcium flux signals. Method
Monolayers of hα7-wt nAChR-expressing cells were grown in multi-well plates, in particular black-sided, transparent bottomed 384 well plates coated with poly-D-lysine for 24 hours prior to loading with a fluorescent calcium indicator, in a particular embodiment loading with fluo-4AM for up to 120 minutes.
PAM activity was detected in real time by applying the compounds to be tested to the loaded cells along with a α7 nicotinic receptor agonist during constant monitoring of cellular fluorescence in a FDSS. Compounds giving peak fluorescent responses greater than the response due to agonist alone, were considered to be α7 nAChR PAM's. In a particular embodiment, the α7 nicotinic receptor agonist was choline, a more particular embodiment choline applied at a sub-maximal concentration of 100 μM. In a further setting of the present invention the compounds to be tested were applied prior to the α7 nicotinic receptor agonist, in a particular embodiment up to 10 minutes prior to the agonist.
A control response to choline was calculated on each plate from the difference in peak in fluorescence in wells receiving either choline or assay buffer alone. Compounds of the present invention were tested at a concentration range from 0.01 μM to 30 μM. Compounds were considered to have an interesting activity when they potentiated the choline signal at least with 200% when tested at a concentration of 30 μM (the efficacy of 100 μM choline was defined as 100% in the absence of a PAM). An EC50 (or pEC50) was determined as a concentration relating to half the maximal effect, when a clear sigmoidal curve with top plateau was obtained.

[2] = target: T1, hα7-wt nAChR; test: Patch-clamp current recording (whole-cell voltage clamp), potentiation of choline current and PAM type; type: cell-based; parameters: key: Type 0 compounds minimally enhance the effect size of the current elicited by 1 mM choline.; Type 1 compounds enhance the effect size of the current elicited by 1 mM choline but minimally alter the kinetics of the receptor.; Type 2 compounds enhance the effect size of the current elicited by 1 mM choline while reducing the rate and/or the extent of desensitization.; Type 3 compounds enhance the effect size of the current elicited by 1 mM choline. When tested at higher concentrations up to 10 μM they completely inhibit desensitization, in particular a 1 mM choline application of 250 milliseconds.; Type 4 compounds allow for an initial desensitization of the receptor followed by a re-opening of the receptor during agonist application; conditions: hα7-wt nAChR-expressing GH4C1 cells, 1 mM choline
Procedure: The compounds of the present invention are classified as type 0-4, based on qualitative kinetic properties, as determined by whole-cell voltage-clamp recordings. This classification is based on the effect of an α7 PAM compound, as described hereinbefore, on the signal elicited by an agonist application. In particular, said agonist is choline at a concentration of 1 mM. In a preferred experimental setting, said α7 PAM compound and choline are simultaneously applied to the cell, as described hereinafter. Desensitization is defined as the closure of the receptor upon activation during the application of the agonist in whole-cell voltage-clamp electrophysiology measurements seen as the reduction of the […] current after initial activation by the agonist.
The definition of the PAM types 0-4 is described hereinafter: • Type 0 compounds minimally enhance the effect size of the current elicited by 1 mM choline. • Type 1 compounds enhance the effect size of the current elicited by 1 mM choline but minimally alter the kinetics of the receptor. In particular, the rate and the extent of desensitization, elicited by the agonist, is not affected. The compound-modulated response to 1 mM choline, therefore, is a close to linear scaling of the 1 mM choline response in absence of the α7 PAM compound. • Type 2 compounds enhance the effect size of the current elicited by 1 mM choline while reducing the rate and/or the extent of desensitization. • Type 3 compounds enhance the effect size of the current elicited by 1 mM choline. […] At low-potency concentrations of the α7 PAM compound, the agonist-induced activation, which is followed by desensitization, can still be separated from the compound-induced re-opening as an initial inward current-maximum. At higher potency concentrations of the α7 PAM compound, the re-opening occurs faster than the closure due to desensitization so that the initial current-maximum disappears.
A compound was considered to have interesting PAM-like activity when the potentiation of the peak current was at least 200% compared to the control choline response (=100%). Such compounds are classified as belonging to a particular PAM type in the Experimental Part. Compounds not meeting the condition are not classified as belonging to a particular PAM-type.
The compounds also have a potentiating effect on the response to choline when measured by whole-cell patch clamp electrophysiology in GH4C1 cells stably over-expressing the human wild-type α7 receptor.
Patch-clamp recording from mammalian cells has provided a powerful means of assessing the function of membrane-bound proteins thought to be subunits of ligand-gated ion channels. Activation of such proteins by endogenous or exogenous ligands cause opening of a pore associated with the receptor through which ions flow down their electrochemical gradient. In the case of the hα7-wt nAChR-expressing GH4C1 recombinant cell line the preferential permeability to calcium of this receptor means that calcium flows into the cell upon activation by ACh, choline and other nicotinic ligands giving rise to a calcium current. Since this receptor rapidly desensitizes in the presence of agonist it is important an application system is used which is capable of very rapid switching of solutions (<100 ms) to prevent partial or full desensitisation of receptor responses coincident with the time of agonist application. Consequently, a second convenient technique to assess the enhancement of nicotinic efficacy is patch-clamp recording from hα7-wt nAChR-expressing GH4C1 cells coupled with a rapid-application system.
• a) Assay Buffers • The external recording solution consisted of 152 mM NaCl, 5 mM KCl, 1 mM MgCl2, 1 mM Calcium, 10 mM HEPES; pH 7.3. […]

T1 sequence (P36544 23-502): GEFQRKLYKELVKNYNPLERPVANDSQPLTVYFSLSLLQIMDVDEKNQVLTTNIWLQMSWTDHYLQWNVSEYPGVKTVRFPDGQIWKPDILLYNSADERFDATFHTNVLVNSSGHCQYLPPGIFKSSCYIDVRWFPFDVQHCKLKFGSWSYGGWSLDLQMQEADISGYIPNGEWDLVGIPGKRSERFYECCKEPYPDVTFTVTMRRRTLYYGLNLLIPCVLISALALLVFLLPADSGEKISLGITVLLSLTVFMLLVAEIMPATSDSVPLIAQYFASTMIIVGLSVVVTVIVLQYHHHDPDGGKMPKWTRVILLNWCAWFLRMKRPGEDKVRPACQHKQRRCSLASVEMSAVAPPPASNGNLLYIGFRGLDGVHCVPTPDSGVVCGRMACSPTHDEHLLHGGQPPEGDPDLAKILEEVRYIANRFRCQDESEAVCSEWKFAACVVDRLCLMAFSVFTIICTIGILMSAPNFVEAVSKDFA

| SMILES | melting point [°C] | EC50 [1] [µM] | PAM type [2] |
| --- | --- | --- | --- |
| Cc1cc(-n2nc(Nc3cccc(Cl)c3F)cc2CC(=O)NCC2CC2)cc(C)n1 [Compound 80, 3-[(3-chloro-2-fluorophenyl)amino]-N-(cyclopropylmethyl)-1-(2,6-dimethyl-4-pyridinyl)-1H-pyrazole-5-acetamide] | 210.4 | 0.0955 | 2 |
| CC[C@H](O)Cc1cc(Nc2cc(Cl)cc(OC)c2)nn1-c1ccnc(C)c1 [Compound 61, (alphaS)-3-[(3-chloro-5-methoxyphenyl)amino]-alpha-ethyl-1-(2-methyl-4-pyridinyl)-1H-pyrazole-5-ethanol] | 125.3 | 0.794 | 2 |
| CNC(=O)Cc1cc(Nc2cccc(C(F)(F)F)c2)nn1-c1ccnc(C)c1 [Compound 42, N-methyl-1-(2-methyl-4-pyridinyl)-3-[[3-(trifluoromethyl)phenyl]amino]-1H-pyrazole-5-acetamide] | – | 1.86 | 4 |
| Cc1cc(-n2nc(Nc3ccc4c(c3)OC(F)(F)O4)cc2CC(=O)NC2CCC2)ccn1 [Compound 102, N-cyclobutyl-3-[(2,2-difluoro-1,3-benzodioxol-5-yl)amino]-1-(2-methyl-4-pyridinyl)-1H-pyrazole-5-acetamide] | 237.7 | 0.24 | 2 |
| Cc1cc(-n2nc(Nc3cccc(OC(F)(F)F)c3)cc2CC(=O)NC2CCC2)ccn1 [Compound 121, N-cyclobutyl-1-(2-methyl-4-pyridinyl)-3-[[3-(trifluoromethoxy)phenyl]amino]-1H-pyrazole-5-acetamide] | 227.7 | 0.417 | 2 |
| CCNC(=O)Cc1cc(Nc2cccc(OC(F)(F)F)c2)nn1-c1cc(C)nc(C)c1 [Compound 114, 1-(2,6-dimethyl-4-pyridinyl)-N-ethyl-3-[[3-(trifluoromethoxy)phenyl]amino]-1H-pyrazole-5-acetamide] | 224.2 | 0.309 | 2 |
| Cc1cc(-n2nc(Nc3cccc(Cl)c3F)cc2CC(=O)NC2CCC2)ccn1 [Compound 82, 3-[(3-chloro-2-fluorophenyl)amino]-N-cyclobutyl-1-(2-methyl-4-pyridinyl)-1H-pyrazole-5-acetamide] | 223.2 | 0.49 | 2 |
| COc1cc(Cl)cc(Nc2cc(CC(=O)NC3CCC3)n(-c3ccnc(C)c3)n2)c1 [Compound 83, 3-[(3-chloro-5-methoxyphenyl)amino]-N-cyclobutyl-1-(2-methyl-4-pyridinyl)-1H-pyrazole-5-acetamide] | 236.4 | 0.145 | 4 |
| Cc1cc(-n2nc(Nc3ccc4c(c3)OC(F)(F)O4)cc2CCCO)ccn1 [Compound 92, 3-[(2,2-difluoro-1,3-benzodioxol-5-yl)amino]-1-(2-methyl-4-pyridinyl)-1H-pyrazole-5-propanol] | 163.3 | 2.34 | 2 |
| CC[C@H](O)Cc1cc(Nc2cc(F)c(F)c(F)c2)nn1-c1ccnc(C)c1 [Compound 20, (alphaS)-alpha-ethyl-1-(2-methyl-4-pyridinyl)-3-[(3,4,5-trifluorophenyl)amino]-1H-pyrazole-5-ethanol] | – | 0.851 | 2 |
| COc1cc(Cl)cc(Nc2cc(CCC(=O)N(C)C)n(-c3ccnc(C)c3)n2)c1 [Compound 85, 3-[(3-chloro-5-methoxyphenyl)amino]-N,N-dimethyl-1-(2-methyl-4-pyridinyl)-1H-pyrazole-5-propanamide] | – | 0.295 | 4 |
| Cc1cc(-n2nc(Nc3cccc(Cl)c3F)cc2CCC(=O)N(C)C)ccn1 [Compound 84, 3-[(3-chloro-2-fluorophenyl)amino]-N,N-dimethyl-1-(2-methyl-4-pyridinyl)-1H-pyrazole-5-propanamide] | – | 0.661 | 4 |
| Cc1cc(-n2nc(Nc3ccc(F)c(F)c3)cc2CCC(=O)N(C)C)ccn1 [Compound 30, 3-[(3,4-difluorophenyl)amino]-N,N-dimethyl-1-(2-methyl-4-pyridinyl)-1H-pyrazole-5-propanamide] | – | 0.977 | 4 |
| CC[C@@H](O)Cc1cc(Nc2cc(OC)cc(C(F)(F)F)c2)nn1-c1ccnc(C)c1 [Compound 36, (alphaR)-alpha-ethyl-3-[[3-methoxy-5-(trifluoromethyl)phenyl]amino]-1-(2-methyl-4-pyridinyl)-1H-pyrazole-5-ethanol] | – | 0.162 | 2 |
| CC[C@H](O)Cc1cc(Nc2ccc(Br)cc2C#N)nn1-c1ccnc(C)c1 [Compound 124, 5-bromo-2-[[5-[(2S)-2-hydroxybutyl]-1-(2-methyl-4-pyridinyl)-1H-pyrazol-3-yl]amino]-benzonitrile] | – | 1.66 | 2 |
| COc1cc(Cl)cc(Nc2cc(CC(=O)NC3CC3)n(-c3ccnc(C)c3)n2)c1 [Compound 77, 3-[(3-chloro-5-methoxyphenyl)amino]-N-cyclopropyl-1-(2-methyl-4-pyridinyl)-1H-pyrazole-5-acetamide] | – | 0.603 | 4 |
| Cc1cc(-n2nc(Nc3cccc(C(F)(F)F)c3)cc2CCC(=O)N(C)C)ccn1 [Compound 49, N,N-dimethyl-1-(2-methyl-4-pyridinyl)-3-[[3-(trifluoromethyl)phenyl]amino]-1H-pyrazole-5-propanamide] | – | 0.295 | 4 |
| CCNC(=O)Cc1cc(Nc2cccc(Cl)c2F)nn1-c1cc(C)nc(C)c1 [Compound 75, 3-[(3-chloro-2-fluorophenyl)amino]-1-(2,6-dimethyl-4-pyridinyl)-N-ethyl-1H-pyrazole-5-acetamide] | – | 0.372 | 2 |

From US8791144B2, “Substituted N-phenyl-1-(4-Pyridinyl)-1H-pyrazol-3-amines” (Janssen Pharmaceutica NV, priority 2009, dated 2014)
